Results reported in patent US9499550B2 (BRISTOL-MYERS SQUIBB COMPANY, priority 2012, dated 2016).
Where two headings read alike, the source gives them in different places.

What was measured:
[1] = system: HCV genotype 1b (Con1) replicon in HUH-7 cells; assay: HCV replicon luciferase reporter assay, genotype 1b; assay type: cell-based; conditions: Hepatitis C virus, Huh-7, 72 h, 3 days incubation
In short: (§1)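 Replicon inhibition for both genotypes was measured as Renilla luciferase signal (EnduRen, 7.5 μM final, 2 h) after 3-day, 37° C exposure of replicon-bearing HUH-7 cells in 4% FCS DMEM, 0.5% DMSO. The 1b construct carries S1179I; the 1a H77 construct carries P1496L and S2204I. Twenty-point, 3-fold dilutions were fitted four-parametrically for EC50, and CC50 was taken from multiplexed Cell Titer-Blue.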

[2] = system: HCV genotype 1a (H77 strain) replicon in HUH-7 cells; assay: HCV replicon luciferase reporter assay, genotype 1a; assay type: cell-based; conditions: Hepatitis C virus, Huh-7, 72 h, 3 days incubation
In short: as §1

[3] = HCV genotype 1b replicon luciferase, read-out: LE_1b (EC50, range)
[4] = HCV genotype 1a replicon luciferase, read-out: LE_1a (EC50, range)
[5] = HCV genotype 1b replicon luciferase assay, range class, read-out: LE_1b (EC50, range)
[6] = HCV genotype 1a replicon luciferase assay, range class, read-out: LE_1a (EC50, range)

## COc1ccc2c(O[C@@H]3C[C@H]4C(=O)N[C@]5(C(=O)NS(=O)(=O)C6(C)CC6)C[C@H]5/C=C\CC[C@H](C)C[C@@H](C)[C@H](NC(=O)OC(C)(C)C(C)(F)F)C(=O)N4C3)nc(-c3ccc(OC(C)C)cc3)c(OC)c2c1 [Compound 5345, 3,3-difluoro-2-methylbutan-2-yl((2R,6S,7R,9S,13aS,14aR,16aS,Z)-2-((3-(4-isopropoxyphenyl)-4,6-dimethoxyisoquinolin-1-yl)oxy)-7,9-dimethyl-14a-(((1-methylcyclopropyl)sulfonyl)carbamoyl)-5,16-dioxo-1,2,3,5,6,7,8,9,10,11,13a,14,14a,15,16,16a-hexadecahydrocyclopropa[e]pyrrolo[1,2-a][1,4]diazacyclopentadecin-6-yl)carbamate]
[1]; [3]
  EC50: < 5.46 nM
[2]; [4]
  EC50: 4.82 to 103 nM

## CC[C@@H]1C[C@H](C)CC/C=C\[C@@H]2C[C@@]2(C(=O)NS(=O)(=O)C2CC2)NC(=O)[C@@H]2C[C@@H](Oc3nc(-c4ccc(OC(C)C)cn4)cc4cc(OC)ccc34)CN2C(=O)[C@H]1NC(=O)OC(C)(C)C(F)(F)F [Compound 5485, 1,1,1-trifluoro-2-methylpropan-2-yl((2R,6S,7R,9R,13aS,14aR,16aS,Z)-14a-((cyclopropylsulfonyl)carbamoyl)-7-ethyl-2-((3-(5-isopropoxypyridin-2-yl)-6-methoxyisoquinolin-1-yl)oxy)-9-methyl-5,16-dioxo-1,2,3,5,6,7,8,9,10,11,13a,14,14a,15,16,16a-hexadecahydrocyclopropa[e]pyrrolo[1,2-a][1,4]diazacyclopentadecin-6-yl)carbamate]
[1]; [3]
  EC50: 1.01 to 5 nM
[2]; [4]
  EC50: 1.01 to 5 nM

## COc1ccc2c(O[C@@H]3C[C@H]4C(=O)N[C@]5(C(=O)NS(=O)(=O)C6(CF)CC6)C[C@H]5/C=C\CC[C@H](C)C[C@@H](C)[C@H](NC(=O)OC(C)(C)C(F)(F)F)C(=O)N4C3)nc(N3CCCC3)nc2c1 [Compound 3018, 1,1,1-trifluoro-2-methylpropan-2-yl((2R,6S,7R,9S,13aS,14aR,16aS,Z)-14a-(((1-(fluoromethyl)cyclopropyl)sulfonyl)carbamoyl)-2-((7-methoxy-2-(pyrrolidin-1-yl)quinazolin-4-yl)oxy)-7,9-dimethyl-5,16-dioxo-1,2,3,5,6,7,8,9,10,11,13a,14,14a,15,16,16a-hexadecahydrocyclopropa[e]pyrrolo[1,2-a][1,4]diazacyclopentadecin-6-yl)carbamate]
[1]; [5]
  EC50: 4.82 to 103 nM
[2]; [6]
  EC50: 4.82 to 103 nM

## COc1cnc(O[C@@H]2C[C@H]3C(=O)N[C@]4(C(=O)NS(=O)(=O)C5(CF)CC5)C[C@H]4/C=C\CC[C@H](C)C[C@@H](C)[C@H](NC(=O)OC4(C5CC5)COC4)C(=O)N3C2)c2ccccc12 [Compound 1059, 3-cyclopropyloxetan-3-yl((2R,6S,7R,9S,13aS,14aR,16aS,Z)-14a-(((1-(fluoromethyl)cyclopropyl)sulfonyl)carbamoyl)-2-((4-methoxyisoquinolin-1-yl)oxy)-7,9-dimethyl-5,16-dioxo-1,2,3,5,6,7,8,9,10,11,13a,14,14a,15,16,16a-hexadecahydrocyclopropa[e]pyrrolo[1,2-a][1,4]diazacyclopentadecin-6-yl)carbamate]
[1]; [5]
  EC50: 4.82 to 103 nM
[2]; [6]
  EC50: 4.82 to 103 nM

## CCOc1ccc2nc(O)c(O[C@@H]3C[C@H]4C(=O)N[C@]5(C(=O)NS(=O)(=O)C6(C)CC6)C[C@H]5/C=C\CC[C@@H](C)C[C@@H](CC)[C@H](NC(=O)OC(C)(C)C)C(=O)N4C3)nc2c1 [Compound 4361, tert-butyl ((2R,6S,7R,9R,13aS,14aR,16aS,Z)-2-((7-ethoxy-3-hydroxyquinoxalin-2-yl)oxy)-7-ethyl-9-methyl-14a-(((1-methylcyclopropyl)sulfonyl)carbamoyl)-5,16-dioxo-1,2,3,5,6,7,8,9,10,11,13a,14,14a,15,16,16a-hexadecahydrocyclopropa[e]pyrrolo[1,2-a][1,4]diazacyclopentadecin-6-yl)carbamate]
[1]; [3]
  EC50: 5.01 to 35 nM
[2]; [4]
  EC50: 35 to 620 nM

## COc1cccc2c(O[C@@H]3C[C@H]4C(=O)N[C@]5(C(=O)NS(=O)(=O)C6(CF)CC6)C[C@H]5/C=C\CC[C@@H](C)C[C@@H](C)[C@H](NC(=O)OC(C)(C)C(F)(F)F)C(=O)N4C3)nccc12 [Compound 3040]
[1]; GETYPE1B, HCV genotype 1b replicon luciferase assay, range class, read-out: LE_1b (EC50, range)
  EC50: < 5.46 nM
[2]; GETYPE1A, HCV genotype 1a replicon luciferase assay, range class, read-out: LE_1a (EC50, range)
  EC50: < 5.46 nM

## CCOc1cc2ccnc(O[C@@H]3C[C@H]4C(=O)N[C@]5(C(=O)NS(=O)(=O)C6CC6)C[C@H]5/C=C\CC[C@@H](C)C[C@@H](CC)[C@H](NC(=O)OC(C)(C)C(F)(F)F)C(=O)N4C3)c2cc1F [Compound 5407, 1,1,1-trifluoro-2-methylpropan-2-yl((2R,6S,7R,9R,13aS,14aR,16aS,Z)-14a-((cyclopropylsulfonyl)carbamoyl)-2-((6-ethoxy-7-fluoroisoquinolin-1-yl)oxy)-7-ethyl-9-methyl-5,16-dioxo-1,2,3,5,6,7,8,9,10,11,13a,14,14a,15,16,16a-hexadecahydrocyclopropa[e]pyrrolo[1,2-a][1,4]diazacyclopentadecin-6-yl)carbamate]
[1]; [3]
  EC50: 0.51 to 1 nM
[2]; [4]
  EC50: 1.01 to 5 nM

## CC(C)Oc1cc2ccccc2c(O[C@@H]2C[C@H]3C(=O)N[C@]4(C(=O)NS(=O)(=O)C5(CF)CC5)C[C@H]4/C=C\CC[C@@H](C)C[C@@H](C)[C@H](NC(=O)OC(C)(C)C)C(=O)N3C2)n1 [Compound 6110, tert-butyl ((2R,6S,7R,9R,13aS,14aR,16aS,Z)-14a-(((1-(fluoromethyl)cyclopropyl)sulfonyl)carbamoyl)-2-((3-isopropoxyisoquinolin-1-yl)oxy)-7,9-dimethyl-5,16-dioxo-1,2,3,5,6,7,8,9,10,11,13a,14,14a,15,16,16a-hexadecahydrocyclopropa[e]pyrrolo[1,2-a][1,4]diazacyclopentadecin-6-yl)carbamate]
[1]; [3]
  EC50: 0.51 to 1 nM
[2]; [4]
  EC50: 1.01 to 5 nM

## CCCOc1cnc(O[C@@H]2C[C@H]3C(=O)N[C@]4(C(=O)NS(=O)(=O)C5(C)CC5)C[C@H]4/C=C\CC[C@H](C)C[C@@H](C)[C@H](NC(=O)OCC4(C)CC4)C(=O)N3C2)c2ccccc12 [Compound 5082, (1-methylcyclopropyl)methyl ((2R,6S,7R,9S,13aS,14aR,16aS,Z)-7,9-dimethyl-14a-(((1-methylcyclopropyl)sulfonyl)carbamoyl)-5,16-dioxo-2-((4-propoxyisoquinolin-1-yl)oxy)-1,2,3,5,6,7,8,9,10,11,13a,14,14a,15,16,16a-hexadecahydrocyclopropa[e]pyrrolo[1,2-a][1,4]diazacyclopentadecin-6-yl)carbamate]
[1]; HCV genotype 1b replicon luciferase, read-out: LE_1b (EC50)
  EC50: 45.5 nM
[1]; [3]
  EC50: 4.82 to 103 nM
[2]; HCV genotype 1a replicon luciferase, read-out: LE_1a (EC50)
  EC50: 198 nM
[2]; [4]
  EC50: > 87.4 nM

## [2H]C([2H])([2H])C(C)(OC(=O)N[C@@H]1C(=O)N2C[C@H](Oc3nccc4cc(OC)ccc34)CC2C(=O)N[C@]2(C(=O)NS(=O)(=O)C3(C)CC3)C[C@H]2/C=C\CC[C@H](C)C[C@H]1C)C([2H])([2H])[2H] (stereo partly drawn) [Compound 5176, 1,1,1,3,3,3-hexadeutero-2-methylpropan-2-yl((2R,6S,7R,9S,13aS,14aR,16aS,Z)-2-((6-methoxyisoquinolin-1-yl)oxy)-7,9-dimethyl-14a-(((1-methylcyclopropyl)sulfonyl)carbamoyl)-5,16-dioxo-1,2,3,5,6,7,8,9,10,11,13a,14,14a,15,16,16a-hexadecahydrocyclopropa[e]pyrrolo[1,2-a][1,4]diazacyclopentadecin-6-yl)carbamate]
[1]; [3]
  EC50: < 5.46 nM
[2]; [4]
  EC50: 4.82 to 103 nM

## COc1cc2c(OC)cnc(O[C@@H]3C[C@H]4C(=O)N[C@]5(C(=O)NS(=O)(=O)C6(C)CC6)C[C@H]5/C=C\CC[C@@H](C)C[C@@H](C)[C@H](NC(=O)OC(C)(C)C)C(=O)N4C3)c2cc1F [Compound 4070, tert-butyl (2R,6S,7R,9R,13aS,14aR,16aS,Z)-2-(7-fluoro-4,6-dimethoxyisoquinolin-1-yloxy)-7,9-dimethyl-14a-(1-methylcyclopropylsulfonylcarbamoyl)-5,16-dioxo-1,2,3,5,6,7,8,9,10,11,13a,14,14a,15,16,16a-hexadecahydrocyclopropa[e]pyrrolo[1,2-a][1,4]diazacyclopentadecin-6-ylcarbamate]
[1]; [3]
  EC50: < 5.46 nM
[2]; [4]
  EC50: < 5.46 nM

## CC[C@@H]1C[C@H](C)CC/C=C\[C@@H]2C[C@@]2(C(=O)NS(=O)(=O)C2(C)CC2)NC(=O)[C@@H]2C[C@@H](Oc3nccc4cc(OC)c(F)cc34)CN2C(=O)[C@H]1NC(=O)OC(C)(C)C [Compound 4175, tert-butyl (2R,6S,7R,9R,13aS,14aR,16aS,Z)-7-ethyl-2-(7-fluoro-6-methoxyisoquinolin-1-yloxy)-9-methyl-14a-(1-methylcyclopropylsulfonylcarbamoyl)-5,16-dioxo-1,2,3,5,6,7,8,9,10,11,13a,14,14a,15,16,16a-hexadecahydrocyclopropa[e]pyrrolo[1,2-a][1,4]diazacyclopentadecin-6-ylcarbamate]
[1]; [3]
  EC50: < 5.46 nM
[2]; [4]
  EC50: < 5.46 nM

## CC[C@@H]1C[C@H](C)CC/C=C\[C@@H]2C[C@@]2(C(=O)NS(=O)(=O)C2CC2)NC(=O)[C@@H]2C[C@@H](Oc3nc4cc(OC)ccc4nc3C(C)C)CN2C(=O)[C@H]1NC(=O)OC(C)(C)C(F)(F)F [Compound 4273]
[1]; GETYPE1B, HCV genotype 1b replicon luciferase, read-out: LE_1b (EC50, range)
  EC50: 1.01 to 5 nM
[2]; GETYPE1A, HCV genotype 1a replicon luciferase, read-out: LE_1a (EC50, range)
  EC50: 5.01 to 35 nM
